According to US20250092017A1, “2-PIPERIDYL OR 2-PYRAZOLYL SUBSTITUTED PYRIMIDINE COMPOUND SERVING AS EGFR INHIBITOR” (SUZHOU PUHE BIOPHARMA CO., LTD., priority 2022, published 2025):
Read-outs that look alike come from different tables or passages of the source.

Key:
[1] = target: T1, Ba/F3-FL-EGFR (Homo sapiens, UniProt P00533); assay: CellTiter-Glo proliferation, Ba/F3-FL-EGFR; format: cell-based; details: 72 hours, read-out: Ba/F3-FL-EGFR IC50/nM
T1 construct: FL read as full length
Summary of the method: (§1)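 Ba/F3 lines dependent on the indicated EGFR variants were treated with compounds at a final DMSO concentration of 0.1% at 37 °C, 5% CO2. Viability was read by CellTiter-Glo luminescence, and inhibition rate was normalised to DMSO-treated cells (max) and medium-only wells (min). IC50 came from inhibition curves.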

[2] = target: Ba/F3-FL-EGFR-del19-T790M-C797S (Homo sapiens, UniProt P00533, DEL746-750/T790M/C797S, cells depend on it); assay: CellTiter-Glo proliferation, Ba/F3-FL-EGFR-del19-T790M-C797S; format: cell-based; details: 72 hours, read-out: Ba/F3-FL-EGFR-del19-T790M-C797S IC50/nM
Procedure: Promega CellTiter-Glo reagent was used to detect the effects of small molecule inhibitors on the proliferation of three Ba/F3 cell lines (Ba/F3-FL-EGFR-de119, Ba/F3-FL-EGFR-de119-T790M, Ba/F3-FL-EGFR-de119-T790M-C797S).
The cell lines were cultured in an incubator at 37° C. and 5% CO2. Cells were passaged regularly and cells in the logarithmic phase were used for plating. 95 μL of cell suspension was added to each well of the cell plate, and culture medium without cells (containing 0.1% DMSO) was added to the Min control wells. Substance addition for compound detection cell plate: 5 μL of 20× compound working solution was added to the cell culture plate. 5 μL of DMSO-cell culture medium mixture was added to the Max control, with the final DMSO concentration of 0.1%. 5 μL of DMSO-cell culture medium mixture was added to the Max control. The final DMSO concentration was 0.1%.
Cell viability was detected by CellTiter-Glo luminescence assay. Data analysis:
The cell proliferation inhibition rate (Inhibition Rate) data was processed using the following formula: […]
wherein: RLUDrug represents the relative luminescence unit of the cells with the addition of drug, RLUMin represents the luminescence unit of the culture medium, and RLUMax represents the relative luminescence unit of the cells with the addition of DMSO.
The inhibition rates corresponding to different concentrations of compounds were calculated in EXCEL, and then the inhibition rate curve was plotted using GraphPad Prism software and related parameters including the maximum and minimum inhibition rates of cells and IC50 values were calculated.

[3] = target: Ba/F3-FL-EGFR-Del19 (E746-A750) (Homo sapiens, UniProt P00533, DEL746-750, cells depend on it); assay: CellTiter-Glo proliferation, Ba/F3-FL-EGFR-Del19; details: read-out: Ba/F3-FL-EGFR-Del19 (E746-A750), 72 hours
[4] = target: Ba/F3-FL-EGFR-del19/T790M (Homo sapiens, UniProt P00533, DEL746-750/T790M, cells depend on it); assay: CellTiter-Glo proliferation, Ba/F3-FL-EGFR-del19/T790M; details: read-out: Ba/F3-FL-EGFR-del19/T790M IC50/nM, 72 hours
[5] = target: T2, Ba/F3-TEL-EGFR-L858R-C797S (Homo sapiens, UniProt P00533, C797S/L858R, cells depend on it); assay: CellTiter-Glo proliferation, Ba/F3-TEL-EGFR-L858R-C797S; format: cell-based; details: 72 hours, read-out: Ba/F3-TEL-EGFR-L858R-C797S IC50/nM
T2 construct: fused on or other part: N-terminal TEL (ETV6) oligomerising part fused to the EGFR intracellular/kinase part; P41212 (Transcription factor ETV6)
Summary of the method: as §1

[6] = target: Ba/F3-FL-EGFR-L858R (Homo sapiens, UniProt P00533, L858R, cells depend on it); assay: CellTiter-Glo proliferation, Ba/F3-FL-EGFR-L858R; format: cell-based; details: 72 hours, read-out: Ba/F3-FL-EGFR-L858R IC50/nM
Summary of the method: as §1

[7] = tested on: Ba/F3-FL-EGFR-del19-C797S; assay: CellTiter-Glo proliferation, Ba/F3-FL-EGFR-del19-C797S; format: cell-based; details: read-out: Ba/F3-FL-EGFR-del19-C797S IC50/nM
Summary of the method: as §1

[8] = target: Ba/F3-FL-EGFR-L858R-T790M-C797S (Homo sapiens, UniProt P00533, T790M/C797S/L858R, cells depend on it); assay: CellTiter-Glo proliferation, Ba/F3-FL-EGFR-L858R-T790M-C797S; format: cell-based; details: 72 hours, read-out: Ba/F3-FL-EGFR-L858R-T790M-C797S IC50/nM
Summary of the method: as §1

[9] = tested on: BaF3 (del19/T790M1C797S) tumor cells; assay: In vivo efficacy assay in BALB/c nude mice, subcutaneous BaF3 tumor; details: oral; for Tumor volume (mm^3): after 13 consecutive days of administration; for TGI: after 13 consecutive days, based on final tumor volume
Procedure: In vivo efficacy assay in BALB/c nude mice. Details were as follows:
BaF3 (del19/T790M1C797S) tumor cells were cultured and inoculated into 6-8 weeks old female BALB/c nude mice (weighing about 20 g), with all mice being subcutaneously inoculated. The mice were cultured in an SPF-grade experimental environment, and all mice had free access to commercially certified standard diets. When the average tumor volume of the mice grew to about 150 mm^3, the test compound was orally administered daily. The dosage was as follows: blank group vehicle (DMSO/Solutol/H2O, 5/10/85). […] The tumor volume was measured three times a week with a two-dimensional caliper, and the animals were weighed every day. […] The volume calculation formula is: V=1/2a*b^2, where a represents the long diameter of the tumor, and b represents the short diameter of the tumor.

[10] = target: EGFR (wild-type) (Homo sapiens, UniProt P00533); assay: MSA (Mobility Shift Assay) kinase activity, EGFR wild type; format: biochemical; details: read-out: EGFR wt/ IC50/nM
Procedure: (§2) The MSA (Mobility Shift Assay) method was used to detect the effects of small molecule inhibitors on the kinase activity of EGFR wild type and its mutants (EGFR^wt, EGFR-L858R, EGFR-L858R-T790M-C797S, EGFR-L858R-C797S).
(§3) 10 μL of kinase solution at 2.5 times the final concentration was added to the compound wells and positive control Max wells; 10 μL of 1x kinase buffer was added to the negative control Min wells. The mixture was centrifuged at 1000 rpm for 30 seconds, and the reaction plate was shaken to mix the solution well and then incubated at room temperature for 10 minutes. A mixed solution of ATP and kinase substrate at 5/3 times the final concentration was prepared in 1x kinase buffer. 15 μL of a mixed solution of ATP and substrate at 5/3 times the final concentration was added to initiate the reaction. The 384-well plate was centrifuged at 1000 rpm for 30 seconds, and shaken to mix the solution well and then incubated at room temperature for the corresponding time. 30 μL of stop detection solution was added to stop the kinase reaction, and the mixture was centrifuged at 1000 rpm for 30 seconds, and then to mixed well by shaking. The conversion rate was read using Caliper EZ Reader.
(§4) wherein: Conversion %_sample is the conversion rate reading of the sample; Conversion %_min is the mean of the negative control wells, representing the conversion rate reading of the wells without enzyme activity; Conversion %_max is the mean of the positive control wells, representing the conversion rate reading of the wells without compound inhibition.
(§5) The log (inhibitor) vs. response —Variable slope of the analysis software GraphPad Prism 5 was used to fit the dose-effect curve, where the log value of the concentration was used as the X-axis and the percentage inhibition rate was used as the Y-axis, to obtain the IC50 value of each compound on the enzyme activity.
(§6) The calculation formula is Y=Bottom+(Top-Bottom)/(1+10^((Log IC50−X)*Hill Slope))

[11] = target: EGFR (L858R/C797S) (Homo sapiens, UniProt P00533, C797S/L858R); assay: MSA (Mobility Shift Assay) kinase activity, EGFR-L858R-C797S; format: biochemical
Procedure: as §2, §3, §4, §5, §6

[12] = Liver microsome stability test, mouse; format: in vitro ADME; details: mouse liver microsomes 0.5 mg/ml, compound 1 μM, NADPH 1 mM, within 60 minutes
Procedure: (§7) The compounds of the present disclosure were subjected to a liver microsome stability test. The compounds to be tested were co-incubated with liver microsomes of different species with or without the addition of NADPH. The final concentration of the compounds to be tested in the test system was 1 μM. The final concentration of NADPH was 1 mM, and the final concentration of liver microsomes was 0.5 mg/ml.

[13] = Liver microsome stability test, human; format: in vitro ADME; details: human liver microsomes 0.5 mg/ml, compound 1 μM, NADPH 1 mM, within 60 minutes
Procedure: as §7

[14] = target: EGFR (L858R) (Homo sapiens, UniProt P00533, L858R); assay: MSA (Mobility Shift Assay) kinase activity, EGFR-L858R; format: biochemical
Procedure: as §2, §3, §4, §5, §6

[15] = target: EGFR (L858R/T790M/C797S) (Homo sapiens, UniProt P00533, C797S/L858R/T790M); assay: MSA (Mobility Shift Assay) kinase activity, EGFR-L858R-T790M-C797S; format: biochemical
Procedure: as §2, §3, §4, §5, §6

[16] = 72 h, proliferation, 72 hours, CellTiter-Glo

Sequence of Ba/F3-FL-EGFR-del19-T790M-C797S (P00533 with tags, fused parts or gaps DEL746-750/T790M/C797S): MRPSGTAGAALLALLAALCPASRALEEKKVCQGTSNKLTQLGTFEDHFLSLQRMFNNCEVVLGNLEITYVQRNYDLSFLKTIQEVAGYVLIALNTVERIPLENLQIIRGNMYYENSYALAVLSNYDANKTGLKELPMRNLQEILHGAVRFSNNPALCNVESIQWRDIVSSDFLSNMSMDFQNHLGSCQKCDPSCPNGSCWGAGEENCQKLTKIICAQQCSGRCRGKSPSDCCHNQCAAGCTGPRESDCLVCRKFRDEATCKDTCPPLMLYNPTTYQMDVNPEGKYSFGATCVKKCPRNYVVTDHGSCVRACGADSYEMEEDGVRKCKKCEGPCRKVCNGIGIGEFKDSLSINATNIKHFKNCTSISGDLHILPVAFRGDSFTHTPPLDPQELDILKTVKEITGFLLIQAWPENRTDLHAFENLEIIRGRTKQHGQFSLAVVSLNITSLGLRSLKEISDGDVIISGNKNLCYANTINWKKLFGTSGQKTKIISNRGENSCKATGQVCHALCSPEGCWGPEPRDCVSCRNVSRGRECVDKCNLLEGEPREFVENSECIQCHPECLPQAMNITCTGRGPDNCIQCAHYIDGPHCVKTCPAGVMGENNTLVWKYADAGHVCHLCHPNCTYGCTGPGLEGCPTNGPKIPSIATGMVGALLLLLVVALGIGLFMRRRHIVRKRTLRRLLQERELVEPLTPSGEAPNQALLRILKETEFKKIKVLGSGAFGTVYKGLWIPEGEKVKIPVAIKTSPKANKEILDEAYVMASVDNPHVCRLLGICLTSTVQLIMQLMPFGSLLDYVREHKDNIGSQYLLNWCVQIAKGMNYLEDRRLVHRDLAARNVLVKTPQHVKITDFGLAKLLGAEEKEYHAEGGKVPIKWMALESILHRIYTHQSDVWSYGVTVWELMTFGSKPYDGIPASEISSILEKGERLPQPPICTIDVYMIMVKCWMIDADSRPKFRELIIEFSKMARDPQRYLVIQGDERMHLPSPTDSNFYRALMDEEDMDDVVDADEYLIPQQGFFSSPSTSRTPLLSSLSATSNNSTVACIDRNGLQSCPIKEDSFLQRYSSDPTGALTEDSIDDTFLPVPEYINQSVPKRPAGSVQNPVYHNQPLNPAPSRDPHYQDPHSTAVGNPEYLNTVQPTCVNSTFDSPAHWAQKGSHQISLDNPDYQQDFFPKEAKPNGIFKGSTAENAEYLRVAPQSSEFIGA
Sequence of EGFR (L858R/T790M/C797S) (P00533 25-1210 T790M/C797S/L858R): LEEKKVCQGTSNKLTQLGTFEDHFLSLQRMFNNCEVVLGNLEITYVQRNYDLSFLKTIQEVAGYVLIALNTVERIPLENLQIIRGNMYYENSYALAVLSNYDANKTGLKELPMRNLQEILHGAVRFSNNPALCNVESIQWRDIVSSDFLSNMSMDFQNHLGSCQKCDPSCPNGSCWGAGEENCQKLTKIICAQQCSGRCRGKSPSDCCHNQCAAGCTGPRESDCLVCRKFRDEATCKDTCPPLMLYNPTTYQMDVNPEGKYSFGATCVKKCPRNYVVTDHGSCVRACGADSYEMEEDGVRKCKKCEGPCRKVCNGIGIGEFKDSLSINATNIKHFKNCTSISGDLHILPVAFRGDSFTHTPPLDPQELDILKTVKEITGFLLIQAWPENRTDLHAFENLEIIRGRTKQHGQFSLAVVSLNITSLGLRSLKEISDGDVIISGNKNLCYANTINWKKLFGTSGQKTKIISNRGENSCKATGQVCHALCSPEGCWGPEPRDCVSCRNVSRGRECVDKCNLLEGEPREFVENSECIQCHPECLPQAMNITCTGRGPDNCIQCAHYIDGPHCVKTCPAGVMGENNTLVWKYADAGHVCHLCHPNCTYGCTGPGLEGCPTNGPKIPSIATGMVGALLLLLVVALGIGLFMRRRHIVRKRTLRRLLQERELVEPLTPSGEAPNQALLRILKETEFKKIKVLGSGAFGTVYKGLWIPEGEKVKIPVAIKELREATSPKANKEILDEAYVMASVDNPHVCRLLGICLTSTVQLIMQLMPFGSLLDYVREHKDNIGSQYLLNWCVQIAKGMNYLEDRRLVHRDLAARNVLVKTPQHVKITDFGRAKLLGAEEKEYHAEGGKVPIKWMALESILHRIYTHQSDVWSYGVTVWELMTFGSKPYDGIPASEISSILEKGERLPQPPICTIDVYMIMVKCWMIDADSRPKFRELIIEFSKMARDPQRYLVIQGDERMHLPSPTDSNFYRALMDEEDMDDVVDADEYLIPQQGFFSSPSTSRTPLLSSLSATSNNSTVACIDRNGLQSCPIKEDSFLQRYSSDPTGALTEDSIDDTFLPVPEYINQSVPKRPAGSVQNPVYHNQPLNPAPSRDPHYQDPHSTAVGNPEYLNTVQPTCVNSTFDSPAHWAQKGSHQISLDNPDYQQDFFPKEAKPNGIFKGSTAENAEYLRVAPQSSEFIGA
T1 sequence (P00533 whole entry, change not shown): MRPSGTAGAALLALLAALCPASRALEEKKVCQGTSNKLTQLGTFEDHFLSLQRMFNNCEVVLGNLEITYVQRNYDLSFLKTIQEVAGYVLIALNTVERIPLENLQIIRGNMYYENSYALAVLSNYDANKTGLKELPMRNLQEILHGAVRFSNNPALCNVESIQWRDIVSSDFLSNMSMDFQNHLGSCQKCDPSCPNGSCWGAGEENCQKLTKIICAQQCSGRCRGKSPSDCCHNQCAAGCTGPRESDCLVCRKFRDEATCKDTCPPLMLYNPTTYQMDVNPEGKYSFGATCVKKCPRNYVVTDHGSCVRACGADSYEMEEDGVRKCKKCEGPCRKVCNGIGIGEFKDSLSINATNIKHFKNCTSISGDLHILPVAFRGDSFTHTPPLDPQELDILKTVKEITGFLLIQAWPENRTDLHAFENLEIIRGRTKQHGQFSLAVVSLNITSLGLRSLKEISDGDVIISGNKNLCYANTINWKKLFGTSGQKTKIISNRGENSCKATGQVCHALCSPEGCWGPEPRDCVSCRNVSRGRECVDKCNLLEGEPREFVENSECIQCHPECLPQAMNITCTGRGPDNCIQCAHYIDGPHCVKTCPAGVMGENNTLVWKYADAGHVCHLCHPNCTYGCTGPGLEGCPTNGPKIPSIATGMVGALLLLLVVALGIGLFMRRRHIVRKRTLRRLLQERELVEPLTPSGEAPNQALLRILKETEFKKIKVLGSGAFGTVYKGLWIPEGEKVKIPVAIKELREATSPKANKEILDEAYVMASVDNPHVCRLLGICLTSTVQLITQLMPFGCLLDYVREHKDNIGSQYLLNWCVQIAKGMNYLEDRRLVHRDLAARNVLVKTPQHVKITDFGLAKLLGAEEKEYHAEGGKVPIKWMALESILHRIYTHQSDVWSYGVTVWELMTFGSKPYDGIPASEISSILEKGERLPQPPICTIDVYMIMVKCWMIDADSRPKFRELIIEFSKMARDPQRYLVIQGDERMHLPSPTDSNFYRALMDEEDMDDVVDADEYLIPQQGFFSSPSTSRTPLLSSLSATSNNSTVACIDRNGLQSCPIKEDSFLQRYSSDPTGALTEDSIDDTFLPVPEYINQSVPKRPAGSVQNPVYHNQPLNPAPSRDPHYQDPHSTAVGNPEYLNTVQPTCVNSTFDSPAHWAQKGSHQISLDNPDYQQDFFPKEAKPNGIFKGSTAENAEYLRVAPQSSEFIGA
Sequence of Ba/F3-FL-EGFR-L858R (P00533 whole entry L858R): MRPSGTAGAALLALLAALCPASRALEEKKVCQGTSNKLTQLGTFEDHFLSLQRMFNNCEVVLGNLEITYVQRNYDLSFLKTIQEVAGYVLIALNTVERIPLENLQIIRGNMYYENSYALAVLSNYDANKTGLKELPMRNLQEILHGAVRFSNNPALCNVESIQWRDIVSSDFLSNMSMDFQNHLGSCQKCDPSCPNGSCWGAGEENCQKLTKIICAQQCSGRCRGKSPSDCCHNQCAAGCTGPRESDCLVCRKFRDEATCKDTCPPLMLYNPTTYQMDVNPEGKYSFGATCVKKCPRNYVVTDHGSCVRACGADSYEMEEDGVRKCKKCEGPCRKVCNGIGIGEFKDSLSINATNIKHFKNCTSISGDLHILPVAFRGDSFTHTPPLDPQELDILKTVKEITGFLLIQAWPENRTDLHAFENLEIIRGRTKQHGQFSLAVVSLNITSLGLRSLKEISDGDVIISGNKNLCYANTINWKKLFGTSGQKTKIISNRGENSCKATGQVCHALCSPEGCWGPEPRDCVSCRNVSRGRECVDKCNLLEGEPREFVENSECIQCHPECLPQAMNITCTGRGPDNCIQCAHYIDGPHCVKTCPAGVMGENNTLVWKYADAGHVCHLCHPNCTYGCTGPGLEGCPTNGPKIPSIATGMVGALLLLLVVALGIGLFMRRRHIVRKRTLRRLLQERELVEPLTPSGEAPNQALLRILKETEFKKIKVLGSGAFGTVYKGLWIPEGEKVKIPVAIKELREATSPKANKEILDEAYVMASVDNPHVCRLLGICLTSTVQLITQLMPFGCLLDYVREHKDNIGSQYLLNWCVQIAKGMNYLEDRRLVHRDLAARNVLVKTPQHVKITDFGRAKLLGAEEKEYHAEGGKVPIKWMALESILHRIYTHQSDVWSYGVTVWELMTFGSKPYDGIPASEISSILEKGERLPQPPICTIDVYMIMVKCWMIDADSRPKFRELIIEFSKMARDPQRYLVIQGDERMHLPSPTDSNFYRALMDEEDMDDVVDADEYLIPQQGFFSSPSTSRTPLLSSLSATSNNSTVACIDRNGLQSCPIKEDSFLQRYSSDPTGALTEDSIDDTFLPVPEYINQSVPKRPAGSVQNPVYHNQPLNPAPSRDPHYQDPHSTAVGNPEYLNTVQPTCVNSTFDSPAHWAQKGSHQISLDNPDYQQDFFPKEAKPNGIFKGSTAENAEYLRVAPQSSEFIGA

Row | Compound | GI50 [1] | GI50 [2] | GI50 [3] | GI50 [4] | GI50 [5] | GI50 [6] | IC50 [7, 16] | GI50 [8] | IC50 [10] | IC50 [11] | CLint scaled at 1 μM [12] | CLint scaled at 1 μM [13] | IC50 [14] | IC50 [15] | other results
1 | C=CC(=O)Nc1cc(Nc2nccc(-c3cn(C)c4ccccc34)n2)c(OC)cc1N(C)CCN(C)C [Osimertinib, osimertinib, reference compound] |  |  |  |  |  |  |  |  |  |  |  |  |  |  | Tumor volume (mm^3) ([9]; 25 mg/kg, QD): 3110 mm^3; TGI ([9]; 25 mg/kg, QD): 20%; IC50 ([7]; 72 h): 906 nM
2 | CC(C)c1ccc(N2CC(CS(C)(=O)=O)C2)c2cnc(Nc3ccnc(-c4cnn(S(=O)(=O)C5CC5)c4)n3)cc12 [Compound H1] | 101 nM |  |  |  | 3.1 nM | 5.9 nM |  | 16 nM | 3.9 nM | 1.5 nM |  |  | 1.6 nM | 0.4 nM | Mouse Clint/(mL/min/kg) [12]: 174 mL/min/kg; Human Clint/(mL/min/kg) [13]: <8.6 mL/min/kg; IC50 ([7]; proliferation, 72 hours, CellTiter-Glo): 10 nM
3 | CC(C)c1ccc(N2CC(CS(C)(=O)=O)C2)c2cnc(Nc3ccnc(-c4cnn(S(=O)(=O)N(C)C)c4)n3)cc12 [Compound H19] | 559 nM |  |  |  | 36 nM | 64 nM | 57 nM | 123 nM | 7.4 nM | 4.6 nM | 61.8 mL/min/kg | 17.2 mL/min/kg | 2.9 nM | 0.4 nM | 
4 | CC(C)c1ccc(N2CC(CS(C)(=O)=O)C2)c2cnc(Nc3ccnc(-c4cnn(S(C)(=O)=O)c4)n3)cc12 [Compound H7] | 365 nM |  |  |  | 11 nM | 13 nM | 12 nM | 25 nM | 2.4 nM | 0.77 nM | 151 mL/min/kg | 21.3 mL/min/kg |  | 0.14 nM | 
5 | CC(C)c1ccc(N2C[C@H](CS(C)(=O)=O)[C@H]2C)c2cnc(Nc3ccnc(-c4cnn(S(C)(=O)=O)c4)n3)cc12 [Compound H30] | 259 nM | 7.8 nM | 15 nM | 5.1 nM | 8.9 nM | 10 nM | 9.2 nM | 21 nM |  |  | 145 mL/min/kg | 11.7 mL/min/kg |  |  | 

The next lines start with results.

Row | GI50 [1] | GI50 [2] | GI50 [3] | GI50 [4] | GI50 [5] | GI50 [6] | IC50 [7, 16] | GI50 [8] | IC50 [10] | IC50 [11] | CLint scaled at 1 μM [12] | CLint scaled at 1 μM [13] | IC50 [14] | IC50 [15] | Compound | other results
6 | 464 nM | 3.7 nM | 36 nM | 2.3 nM | 5.6 nM | 15 nM | 35 nM | 3.7 nM |  |  |  |  |  |  | CC(C)c1ccc(N2C[C@H](N(C)S(C)(=O)=O)[C@H]2C)c2cnc(Nc3ccnc(N4CC[C@H](O)[C@H](F)C4)n3)cc12 [Compound P41b] | 
7 | 2340 nM |  |  |  | 48 nM | 111 nM | 200 nM | 47 nM | 18.1 nM | 4.8 nM | 230 mL/min/kg | < 8.6 mL/min/kg | 3.5 nM | 0.1 nM | CC(C)c1ccc(N2CC(NS(C)(=O)=O)C2)c2cnc(Nc3ccnc(N4CCC(O)C(F)(F)C4)n3)cc12 (stereo not drawn) [Compound P30] | 
8 | 1090 nM |  |  |  | 13 nM | 41 nM | 202 nM | 13 nM | 8.4 nM | 2.5 nM | 440 mL/min/kg | 23.4 mL/min/kg | 1.3 nM | 0.07 nM | COC1CCN(c2nccc(Nc3cc4c(C(C)C)ccc(N5CC(NS(C)(=O)=O)C5)c4cn3)n2)CC1F (stereo not drawn) [Compound P29] | 
9 | 1510 nM |  |  |  | 38.6 nM | 76 nM | 205 nM | 36 nM | 8.4 nM | 2.3 nM | 396 mL/min/kg | 13.6 mL/min/kg | 1.9 nM | 0.06 nM | CC(C)c1ccc(N2CC(NS(C)(=O)=O)C2)c2cnc(Nc3ccnc(N4CCC(O)C(F)C4)n3)cc12 (stereo not drawn) [Compound P21] | 
10 | 693 nM | 5.9 nM | 54 nM | 3.2 nM | 7.1 nM | 22 nM | 57 nM | 4.6 nM |  |  |  |  |  |  | CC(C)c1ccc(N2C[C@H](N(C)S(C)(=O)=O)[C@H]2C)c2cnc(Nc3ccnc(N4CC[C@@H](O)[C@@H](F)C4)n3)cc12 [Compound P41a] | Tumor volume (mm^3) ([9]; 100 mg/kg, BID): 693 mm^3; TGI ([9]; 100 mg/kg, BID): 85%
